According to ChEMBL document CHEMBL1201862, “PubChem BioAssay data set” (2004):
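Exposure lasted 48 hours, with cells grown in 96-well plates and compounds tested at five concentrations. GI50: concentration for 50% inhibition of growth.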 Active and inactive are the calls of the source. No stated cut-off is given here; in the data, active = GI50 up to about 1.1 µM and inactive = higher.

Key:
Experiment in all cases: growth of human tumour cells (NCI), 48 h
[1] = test system: A549
[2] = test system: COLO 205
[3] = test system: EKVX
[4] = test system: HL-60
[5] = test system: HOP-92
[6] = test system: IGROV-1
[7] = test system: K562
[8] = test system: KM12
[9] = test system: M14
[10] = test system: NCI-H460
[11] = test system: RXF 393
[12] = test system: SF-268
[13] = test system: SF-295
[14] = test system: SNB-75
[15] = test system: SW-620
[16] = test system: TK-10
[17] = test system: UO-31
[18] = test system: Hs-578T
[19] = test system: MCF7

Structure (SMILES) | GI50 [1] | GI50 [2] | GI50 [3] | GI50 [4] | GI50 [5] | GI50 [6] | GI50 [7] | GI50 [8] | GI50 [9] | GI50 [10] | GI50 [11] | GI50 [12] | GI50 [13] | GI50 [14] | GI50 [15] | GI50 [16] | GI50 [17] | GI50 [18] | GI50 [19]
N#C/C(=C\c1ccc(O)c(O)c1)C(=O)NC1CCC(CC2CCC(NC(=O)/C(C#N)=C/c3ccc(O)c(O)c3)CC2)CC1 (centres undefined) | 0.466 µM (active) | 1.12 µM (inactive) | 3.48 µM (inactive) | 0.902 µM (active) | 1.55 µM (inactive) | 1.71 µM (inactive) | 0.564 µM (active) | 1.47 µM (inactive) | 1.85 µM (inactive) | 0.283 µM (active) | 2.29 µM (inactive) | 1.93 µM (inactive) | 1.3 µM (inactive) | 0.263 µM (active) | 0.465 µM (active) | 4.02 µM (inactive) | 1.77 µM (inactive) |  | 
CCOC(=O)c1cccnc1C(OC(C)=O)OC(C)=O | > 100 µM (inactive) | > 100 µM (inactive) | > 100 µM (inactive) | 49.9 µM (inactive) | > 100 µM (inactive) | > 100 µM (inactive) | > 100 µM (inactive) | > 100 µM (inactive) | > 100 µM (inactive) | > 100 µM (inactive) | > 100 µM (inactive) | > 100 µM (inactive) | 83.4 µM (inactive) | > 100 µM (inactive) | > 100 µM (inactive) | > 100 µM (inactive) | > 100 µM (inactive) |  | 
O=C1C(Cl)=C(N2CCSCC2)C(=O)c2c(O)ccc(O)c21 | 0.469 µM (active) | 0.1 µM (active) |  |  | 1.02 µM (active) | 0.776 µM (active) |  | 0.38 µM (active) | 0.33 µM (active) | 0.494 µM (active) | 0.243 µM (active) | 0.514 µM (active) | 0.1 µM (active) | 1 µM (active) | 0.258 µM (active) | 0.465 µM (active) | 0.569 µM (active) | 0.501 µM (active) | 
CCOC(=O)c1oc2c(OC)ccc3c2c1CCC3 | > 100 µM (inactive) | > 100 µM (inactive) | > 100 µM (inactive) | > 100 µM (inactive) | 86.9 µM (inactive) | > 100 µM (inactive) | 66.8 µM (inactive) | > 100 µM (inactive) | > 100 µM (inactive) | > 100 µM (inactive) | > 100 µM (inactive) | > 100 µM (inactive) | > 100 µM (inactive) | 77.6 µM (inactive) | > 100 µM (inactive) | > 100 µM (inactive) | 33.6 µM (inactive) |  | 
C[n+]1c(-c2ccc(/C=N/Nc3ccnc(N/N=C/c4ccc(-c5cn6ccccc6[n+]5C)cc4)n3)cc2)cn2ccccc21 | > 100 µM (inactive) | 94 µM (inactive) | > 100 µM (inactive) | 24.5 µM (inactive) |  | 39.3 µM (inactive) |  | 32.6 µM (inactive) | 31.2 µM (inactive) | 31.3 µM (inactive) |  | 88.9 µM (inactive) | 17.9 µM (inactive) | 34.7 µM (inactive) | 71.1 µM (inactive) | 41.8 µM (inactive) | 21.2 µM (inactive) | 30.5 µM (inactive) | 
C/C=C/C1=C(Cl)C(=O)[C@@H](Cl)[C@@]1(O)C(=O)OC [(+)-CRYPTOSPORIPSIN] | 9.86 µM (inactive) | 1.5 µM (inactive) | 3.65 µM (inactive) | 1.7 µM (inactive) | 2.25 µM (inactive) | 5.38 µM (inactive) | 0.869 µM (active) | 7.13 µM (inactive) | 3.13 µM (inactive) | 5.09 µM (inactive) | 2.13 µM (inactive) | 10.6 µM (inactive) | 11.2 µM (inactive) | 7.38 µM (inactive) | 1.06 µM (active) | 3.13 µM (inactive) | 5.61 µM (inactive) |  | 1.48 µM (inactive)
